Source: patent US20040137472A1, “Methods and compositions for modification of splicing of pre-mRNA” (priority 2002, published 2004)

What was measured:
Assay type in all cases: cell-based, human
IVS2-705 β-globin cells = assay: RT-PCR analysis of splicing correction, IVS2-705 β-globin cells; design: key: Compounds causing correction by RT-PCR. are indicated by a (+) sign; details: 50 μM compound
Source text: β-globin cell lines were obtained by stable transfection of HeLa cells with the human β-globin gene carrying thalassemic mutations at either IVS2-654 or IVS2-705. The cloned genes were under the control of the immediate early cytomegalovirus promoter (Sierakowska, et al., (1996) Proc. Natl. Acad. Sci. USA 93:12840-12844). The IVS2-654 EGFP cell line is well known in the art (Sazani (2001) Nucl. Acids Res. 29:3965-3974). The IVS2-705U EGFP cell line was made in the same manner using a different plasmid. HeLa cells were grown in SMEM with 5% horse serum, 5% fetal calf serum, 1% L-glutamine and 1% gentamicin/kanamycin.
(§1) A RT-PCR-based assay was performed to determine if the fluorescence observed on the EGFP cells was a result of the compounds shifting splicing. […] Therefore, primers located in exons 2 and 3 are used to PCR amplify the products, and the size difference is detected by running the products on an acrylamide gel.
After the IVS2-705U and IVS2-654 EGFP cells were re-treated with positive compounds and examined on the microscope, total RNA was isolated using TRI-REAGENT® (Molecular Research Center, Inc., Cincinnati, Ohio). A total of 200 ng of RNA was analyzed by reverse transcription polymerase chain reaction (RT-PCR) using rTth DNA polymerase (Perkin-Elmer, Boston, Mass.) according to manufacturer's instructions. […]

IVS2-705U EGFP cells [1] = assay: EGFP fluorescence screen by fluorescence microscopy, IVS2-705U EGFP HeLa cells; design: key: Compounds causing moderate to high levels of fluorescence with no autofluorescence of the compound itself are indicated by a (+) sign; A (+/−) indicates compounds causing faint levels of fluorescence or compounds that have some autofluorescence in addition to causing the cells to fluoresce; A (−) sign indicates that the compounds did not cause detectable levels of fluorescence; details: 50 μM compound, 24 hours, detected by eye
Protocol: The screen was carried out using HeLa cell lines stably transfected with an EGFP (enhanced green fluorescent protein) construct. This construct contains the EGFP cDNA disrupted by intron 2 of the β-globin gene, containing thalassemic mutations (FIG. 1), and was under the control of the CMV promoter. Two different cell lines were generated with this construct, one with a mutation at position 654 (IVS2-654 EGFP) and another with a mutation at position 705 (IVS2-705U EGFP).
For both constructs, disruption of EGFP with mutated intron 2 results in a lack of production of a functional EGFP protein. When correct splicing is restored to a cell, intron 2 is excised and functional EGFP protein is generated (Sazani (2001) Nucl. Acids Res. 29:3965-3974).
Cells were plated in black well, clear bottom 96-well plates at 13×10^4 cells/ml, 100 μl per well. The rows on the ends of the plate (rows 1 and 12) were control rows and the remaining rows were treated with compounds. In the control rows, positive control EGFP cells were alternated with untreated cells serving as negative controls. […]
Twenty-four hours after treatment, the medium was removed and the cells were washed 2 times in 150 μl 1× PBS. […] Cells were then examined on an Olympus inverted fluorescence microscope at 10× or 20× using a FITC filter. Fluorescence was detected by eye. Attempts to utilize a fluorescence plate reader failed as the plate reader was not sensitive enough to detect the expected low levels of EGFP fluorescence.
The criteria used to designate a compound as a positive were as follows. […] Additionally, the fluorescence had to be mostly uniform throughout all of the cells. This criterion was complicated by the fact that many of the compounds had varying levels of autofluorescence, and therefore were difficult to distinguish from those that caused cellular fluorescence. […]
The IVS2-705U and IVS2-654 EGFP cell lines were treated a second time with the 132 positive compounds and analyzed on a fluorescence microscope. […]

IVS2-705U EGFP cells [2] = assay: RT-PCR analysis of splicing correction, IVS2-705U EGFP cells; design: key: Compounds causing correction by RT-PCR. are indicated by a (+) sign; details: 50 μM compound
Protocol: as §1
After the IVS2-705U and IVS2-654 EGFP cells were re-treated with positive compounds and examined on the microscope, total RNA was isolated using TRI-REAGENT® (Molecular Research Center, Inc., Cincinnati, Ohio). A total of 200 ng of RNA was analyzed by reverse transcription polymerase chain reaction (RT-PCR) using rTth DNA polymerase (Perkin-Elmer, Boston, Mass.) according to manufacturer's instructions. The reverse transcription step was carried out at 70° C. for 15 minutes. The PCR step included 1 cycle, 95° C., 3 minutes: 18 cycles. 95° C., 1 minute, 65° C., 1 minute. For β-globin mRNA amplification, the reverse primer spanned positions 6-28 of exon 3 and the forward primer spanned positions 21-43 of exon 2 of the human β-globin gene. […]
FIG. 3 provides an example of a polyacrylamide gel with RT-PCR products from EGFP cells treated with several positive compounds. The amount of correction was determined by comparing the ratio of the aberrant band and the correct band.

| SMILES | 705 β-globin RT-PCR (IVS2-705 β-globin cells) | 705U EGFP Fluorescence (IVS2-705U EGFP cells [1]) | 705U EGFP RT-PCR (IVS2-705U EGFP cells [2]) |
| --- | --- | --- | --- |
| CC(C)(C)c1ccc(C(=O)NNC(=O)Cc2ccc(-c3ccccc3)cc2)cc1 [Compound E11] | + | − | + |
| CCOc1cccc(CN2CCN(c3ccc(F)cc3)CC2)c1O [AA11] | + | − |  |
| COc1ccc(CCN(C)Cc2cc(OC)c(OC)cc2Br)cc1OC [Compound A5] |  | +/− |  |
